Active and inactive are the calls of the source. No rule for the calls is given here.
Tested on: rodent carcinogenicity bioassays, tumor incidence
Test: CCRIS carcinogenicity studies
Procedure, shortened: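 NCI-built, expert-reviewed records of carcinogenicity and related test outcomes (mutagenicity, tumor promotion/inhibition) compiled from published and report sources, historical span 1985-2011, not updated.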

BrCCBr
carcinogen call (Species: FISH, Strain/Sex: JAPANESE MEDAKA/MALE,FEMALE, Route: IMMERSION, Dose: 0, 0.133, 6.2, 18.58 MG/L IN WATER FOR UP TO 97 D (STUDY DURATION: 58 WK), Dose: 0, 0.133, 6.2, 18.58 MG/L IN WATER FOR UP TO 97 D (STUDY DURATION: 58 WK), Tumor Site: Type of Lesion: LIVER: HEPATOCELLULAR ADENOMA, HEPATOCELLULAR CARCINOMA, CHOLANGIOMA, CHOLANGIOCELLULAR CARCINOMA, GALL BLADDER: TUMOR): active; positive
carcinogen call (Species: FISH, Strain/Sex: SHASTA RAINBOW TROUT/MALE, FEMALE, Route: ORAL, Dose: 0, 2000 PPM IN DIET FOR 18 MO (STUDY DURATION: 18 MO), Tumor Site: Type of Lesion: STOMACH: PAPILLOMA): active; positive
carcinogen call (Species: MOUSE, Strain/Sex: B6C3F1/FEMALE, Route: GAVAGE, Dose: 0, 62, 107 MG/KG, TWA IN CORN OIL (STUDY DURATION: 78-90 WK), Dose: 0, 62, 107 MG/KG, TWA IN CORN OIL (STUDY DURATION: 78-90 WK), Tumor Site: Type of Lesion: LUNG: ALVEOLAR/BRONCHIOLAR ADENOMA, CARCINOMA, STOMACH: SQUAMOUS CELL CARCINOMA): active; positive
carcinogen call (Species: MOUSE, Strain/Sex: B6C3F1/FEMALE, Route: INHALATION, Dose: 0, 10, 40 PPM 6 HR/D, 5 D/WK FOR 90-103 WK (STUDY DURATION: 91-104 WK), Dose: 0, 10, 40 PPM 6 HR/D, 5 D/WK FOR 90-103 WK (STUDY DURATION: 91-104 WK), Tumor Site: Type of Lesion: INTEGUMENTARY SYSTEM (SUBCUTANEOUS TISSUE OR RIB): FIBROSARCOMA, NASAL CAVITY: CARCINOMA (NOS), CARCINOMA (NOS) OR ADENO): active; positive
carcinogen call (Species: MOUSE, Strain/Sex: B6C3F1/FEMALE, Route: INHALATION, Dose: 0, 10, 40 PPM 6 HR/D, 5 D/WK FOR 90-103 WK (STUDY DURATION: 91-104 WK), Dose: 0, 10, 40 PPM 6 HR/D, 5 D/WK FOR 90-103 WK (STUDY DURATION: 91-104 WK), Tumor Site: Type of Lesion: NASAL CAVITY: SQUAMOUS CELL PAPILLOMA, CARCINOMA): active; positive
carcinogen call (Species: MOUSE, Strain/Sex: B6C3F1/MALE, Route: GAVAGE, Dose: 0, 62, 107 MG/KG, TWA IN CORN OIL (STUDY DURATION: 77-78 WK), Dose: 0, 62, 107 MG/KG, TWA IN CORN OIL (STUDY DURATION: 77-78 WK), Tumor Site: Type of Lesion: LUNG: ALVEOLAR/BRONCHIOLAR ADENOMA, STOMACH: SQUAMOUS CELL PAPILLOMA, SQUAMOUS CELL CARCINOMA): active; positive
carcinogen call (Species: MOUSE, Strain/Sex: B6C3F1/MALE, Route: INHALATION, Dose: 0, 10, 40 PPM 6 HR/D, 5 D/WK FOR 78 WK (STUDY DURATION: 79 WK), Dose: 0, 10, 40 PPM 6 HR/D, 5 D/WK FOR 78 WK (STUDY DURATION: 79 WK), Tumor Site: Type of Lesion: LUNG: ALVEOLAR/BRONCHIOLAR ADENOMA, ALVEOLAR/BRONCHIOLAR CARCINOMA): active; positive
carcinogen call (Species: MOUSE, Strain/Sex: B6C3F1/MALE, Route: INHALATION, Dose: 0, 10, 40 PPM 6 HR/D, 5 D/WK FOR 90-103 WK (STUDY DURATION: 91-104 WK), Dose: 0, 10, 40 PPM 6 HR/D, 5 D/WK FOR 90-103 WK (STUDY DURATION: 91-104 WK), Tumor Site: Type of Lesion: NASAL CAVITY: SQUAMOUS CELL PAPILLOMA): active; positive
carcinogen call (Species: RAT, Strain/Sex: F344/FEMALE, Route: INHALATION, Dose: 0, 10, 40 PPM 6 HR/D, 5 D/WK FOR 91-103 WK (STUDY DURATION: 92-104 WK), Dose: 0, 10, 40 PPM 6 HR/D, 5 D/WK FOR 91-103 WK (STUDY DURATION: 92-104 WK), Tumor Site: Type of Lesion: NASAL CAVITY: ADENOMA (NOS), CARCINOMA (NOS), ADENOCARCINOMA (NOS);LUNG: ALVEOLAR/BRONCHIOLAR ADENOMA OR CARCINOMA;SPLEE): active; positive
carcinogen call (Species: RAT, Strain/Sex: F344/MALE, Route: INHALATION, Dose: 0, 10, 40 PPM 6 HR/D, 5 D/WK FOR 88-103 WK (STUDY DURATION: 89-104 WK), Dose: 0, 10, 40 PPM 6 HR/D, 5 D/WK FOR 88-103 WK (STUDY DURATION: 89-104 WK), Tumor Site: Type of Lesion: NASAL CAVITY: ADENOMA (NOS), ADENOCARCINOMA (NOS), CARCINOMA (NOS), ADENOMATOUS POLYP (NOS), CIRCULATORY SYSTEM: HEMANGI): active; positive
carcinogen call (Species: RAT, Strain/Sex: OSBORNE-MENDEL/FEMALE, Route: GAVAGE, Dose: 0, 37, 39 MG/KG, TWA IN CORN OIL (STUDY DURATION: 61 WK), Dose: 0, 37, 39 MG/KG, TWA IN CORN OIL (STUDY DURATION: 61 WK), Tumor Site: Type of Lesion: STOMACH: SQUAMOUS CELL CARCINOMA, LIVER: HEPATOCELLULAR CARCINOMA, NEOPLASTIC NODULE): active; positive
carcinogen call (Species: RAT, Strain/Sex: OSBORNE-MENDEL/MALE, Route: GAVAGE, Dose: 0, 38, 41 MG/KG, TWA IN CORN OIL (STUDY DURATION: 49 WK), Dose: 0, 38, 41 MG/KG, TWA IN CORN OIL (STUDY DURATION: 49 WK), Tumor Site: Type of Lesion: BLOOD VESSELS: HEMANGIOSARCOMA, STOMACH: SQUAMOUS CELL CARCINOMA): active; positive
carcinogen call (Species: RAT, Strain/Sex: SPRAGUE-DAWLEY/FEMALE, Route: INHALATION, Dose: 20 PPM 7 HR/D, 5 D/WK FOR 18 MO, Tumor Site: Type of Lesion: SPLEEN: HEMANGIOSARCOMA, ADRENAL GLAND: PHEOCHROMOCYTOMA, CORTICAL ADENOMA, CARCINOMA, MAMMARY GLAND: ADENOMA, FIBROADEN, Tumor Site: Type of Lesion: SPLEEN: HEMANGIOSARCOMA, ADRENAL GLAND: PHEOCHROMOCYTOMA, CORTICAL ADENOMA, CARCINOMA, MAMMARY GLAND: ADENOMA, FIBROADEN): active; positive
carcinogen call (Species: RAT, Strain/Sex: SPRAGUE-DAWLEY/MALE, Route: INHALATION, Dose: 20 PPM 7 HR/D, 5 D/WK FOR 18 MO, Tumor Site: Type of Lesion: SPLEEN: HEMANGIOSARCOMA, ADRENAL GLAND: PHEOCHROMOCYTOMA, CORTICAL ADENOMA, CARCINOMA, INTEGUMENTARY SYSTEM (SUBCUTANEOU, Tumor Site: Type of Lesion: SPLEEN: HEMANGIOSARCOMA, ADRENAL GLAND: PHEOCHROMOCYTOMA, CORTICAL ADENOMA, CARCINOMA, INTEGUMENTARY SYSTEM (SUBCUTANEOU): active; positive

O[C@@H]1C=Cc2c(ccc3cc4ccc5ccccc5c4nc23)[C@H]1O
carcinogen call (Species: MOUSE, Strain/Sex: CD-1/FEMALE, Route: INTRAPERITONEAL, Dose: 0, 175 NMOL (TOTAL DOSE) ADMINISTERED AS 1/7 OF DOSE WITHIN 24 HR AFTER BIRTH, 2/7 OF DOSE AT 8 D OLD, 4/7 OF DOSE AT 15, Tumor Site: Type of Lesion: LUNG: TUMOR): active; positive
carcinogen call (Species: MOUSE, Strain/Sex: CD-1/MALE, Route: INTRAPERITONEAL, Dose: 0, 175 NMOL (TOTAL DOSE) ADMINISTERED AS 1/7 OF DOSE WITHIN 24 HR AFTER BIRTH, 2/7 OF DOSE AT 8 D OLD, 4/7 OF DOSE AT 15, Tumor Site: Type of Lesion: LIVER: TUMOR, LUNG: TUMOR): active; positive

CC(=O)Nc1c(I)c(C(=O)N[C@@H](C=O)[C@@H](O)[C@H](O)[C@H](O)CO)c(I)c(N(C)C(C)=O)c1I
carcinogen call (Species: MOUSE, Strain/Sex: ICR/FEMALE, Route: INTRABRONCHIAL, Dose: 0, 75 µL ONCE ADMINISTERED TO WEANLING MICE (STUDY DURATION: LIFETIME), Tumor Site: Type of Lesion: LUNG: TUMOR): active; positive

Cc1ccc(S(=O)(=O)NC(=O)NN2CCCCCC2)cc1
carcinogen call (Species: MOUSE, Strain/Sex: B6C3F1/FEMALE, Route: ORAL, Dose: 0, 5000, 10000 PPM IN DIET, Dose: 0, 5000, 10000 PPM IN DIET): inactive; negative
carcinogen call (Species: MOUSE, Strain/Sex: B6C3F1/MALE, Route: ORAL, Dose: 0, 5000, 10000 PPM IN DIET, Dose: 0, 5000, 10000 PPM IN DIET): inactive; negative
carcinogen call (Species: RAT, Strain/Sex: F344/FEMALE, Route: ORAL, Dose: 0, 5000, 10000 PPM IN DIET, Dose: 0, 5000, 10000 PPM IN DIET): inactive; negative
carcinogen call (Species: RAT, Strain/Sex: F344/MALE, Route: ORAL, Dose: 0, 5000, 10000 PPM IN DIET, Dose: 0, 5000, 10000 PPM IN DIET): inactive; negative

Oc1cc2c(c3ccc4ccccc4c13)CCC2
carcinogen call (Species: MOUSE, Strain/Sex: TO/MALE, FEMALE, Route: DERMAL, Dose: 0, 50 UG (10 µL OF A 0.5% W/V TOLUENE SOLUTION) 2/WK FOR 70 WK (STUDY DURATION: 70 WK), Tumor Site: Type of Lesion: SKIN: PAPILLOMA OR CARCINOMA): active; positive

CCNC(=O)[C@@H]1CCCN1C(=O)[C@H](CCCN=C(N)N)NC(=O)[C@H](CC(C)C)NC(=O)[C@@H](COC(C)(C)C)NC(=O)[C@H](Cc1ccc(O)cc1)NC(=O)[C@H](CO)NC(=O)[C@H](Cc1c[nH]c2ccccc12)NC(=O)[C@H](Cc1cnc[nH]1)NC(=O)[C@@H]1CCC(=O)N1
carcinogen call (Species: RAT, Strain/Sex: WISTAR/FEMALE, Route: SUBCUTANEOUS, Dose: 0, 0.0002, 0.0006, 0.0018 MG/KG 1/D FOR 24 MO (STUDY DURATION: 30 MO), Dose: 0, 0.0002, 0.0006, 0.0018 MG/KG 1/D FOR 24 MO (STUDY DURATION: 30 MO)): inactive; negative
carcinogen call (Species: RAT, Strain/Sex: WISTAR/MALE, Route: SUBCUTANEOUS, Dose: 0, 0.0002, 0.0006, 0.0018 MG/KG 1/D FOR 24 MO (STUDY DURATION: 30 MO), Dose: 0, 0.0002, 0.0006, 0.0018 MG/KG 1/D FOR 24 MO (STUDY DURATION: 30 MO)): inactive; negative

— PubChem BioAssay AID1259411 (Chemical Carcinogenesis Research Information System (CCRIS), 2018)
